Experimental data as given in paper PMC5442318, “Hundreds of dual-stage antimalarial molecules discovered by a functional gametocyte screen” (Nature Communications, 2017).
Where two headings read alike, the source gives them in different places.

Key:
[1] = system: HepG2 cells; assay: HepG2 cytotoxicity assay; assay type: cell-based
How it was run: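 Luminescent read-out (CellTiter-Glo) taken 10 min after reagent addition at RT; plates and reagent pre-equilibrated 30 min at RT.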

[2] = system: P. falciparum female gametes; assay: Pf FGAA with compounds added 30 min after triggering gametocyte activation (gamete-targeting); assay type: cell-based, Plasmodium falciparum NF54; details: 0h incubation time
[3] = system: P. falciparum stages IV–V gametocytes; assay: Gametocytocidal ATP-depletion assay (gametocyte ATP bioluminescence); assay type: cell-based, Plasmodium falciparum
How it was run: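 Read-out is luciferase luminescence of parasite ATP (BacTiter-Glo), standing in for viability. Double-purified mature stage IV–V gametocytes, 12,500 per well, were exposed 48 h at 37 °C in low-O2 gas; screening concentration 2 μM.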

[4] = system: P. falciparum asexual blood stages; details: cited from earlier work; for IC50: read-out: Pf Asexual blood stages XC50
[5] = system: P. falciparum stage V female gametocytes; assay: P. falciparum female gametocyte activation assay (Pf FGAA), 24 h or 48 h preincubation, Pfs25 expression readout; assay type: cell-based, Plasmodium falciparum NF54; details: for Pf FGAA classification: SLOW / FAST / GAMETE from activity at 48h, 24h, 0h incubation
How it was run: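 Female activation, triggered by xanthurenic acid and cooling, was scored by imaging Cy3-labelled anti-Pfs25 female gametes after 24 h at 26 °C. Beforehand, purified NF54 stage V gametocytes had been incubated with compound for either 24 h or 48 h (37 °C, 3% O2). Values are pIC50 from full-curve regression.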

[6] = TCAMS data, ref 1 (Gamo et al., 2010)
[7] = TCAMS data, ref 1 (Gamo, F. J. et al., Nature 465, 305-310, 2010)
[8] = TCAMS asexual blood stage data, ref 1 (Gamo, F. J. et al., Nature 465, 305-310, 2010)
[9] = 24h incubation time, read-out: Pf FGAA IC50 (µM) 24h
[10] = P. falciparum female gametocytes, mean, read-out: Gametocytes mean Pf FGAA IC50
[11] = mean, read-out: Gametocytes mean Pf FGAA IC50

| SMILES | IC50 [5, 10] [µM] | IC50 [5, 11] [µM] | HepG2 cells mean TOX50 ([1]; mean) [µM] | IC50 [4, 6] [µM] | HepG2 cells mean TOX50 ([1]; HepG2 cells; mean) [µM] | Gametocytes mean ATP inhibition at 2µM [3] [%] | IC50 [4, 8] [µM] | Gametocytes mean ATP inhibition at 2µM (%) [3] [%] | further results |
| --- | --- | --- | --- | --- | --- | --- | --- | --- | --- |
| CN(C)CCCNCc1cn(S(=O)(=O)c2ccccc2Cl)c2ccccc12 [TCMDC-136302] | – | – | 11.78 | 1.07 | – | – | – | – | Selectivity ratio ([1]; HepG2 TOX50 vs Pf FGAA IC50): 6.39; IC50 ([2]; Plasmodium falciparum): > 20 µM; inhibition at 2 µM ([3]; Plasmodium falciparum, mean): 3.27%; Pf Asexual stages XC50 [4, 7]: 0.35 µM; IC50 ([5]; Plasmodium falciparum, 24h incubation time, read-out: Pf FGAA IC50 (µM) 24h): 0.51 µM; IC50 ([5]; Plasmodium falciparum, mean, read-out: Gametocytes mean Pf FGAA IC50): 1.84 µM; Pf FGAA classification [5]: FAST |
| O=C(NCC1CCN(Cc2cccc(C(F)(F)F)c2)C1)c1cc(-c2cccc(C(F)(F)F)c2)cs1.O=C(O)C(F)(F)F (centres unmarked) [TCMDC-134483] | 1.65 | – | – | – | 16.22 | -4.13 | 0.61 | – | IC50 [2]: > 20 µM; Pf Asexual stages XC50 [4, 7]: 0.61 µM; IC50 [5, 9]: 2.45 µM; Pf FGAA classification [5]: SLOW |
| CCn1c(-c2nonc2N)nc2c(-c3cccc(NC(=O)Nc4ccc5c(c4)CCC5)c3)ncc(OCCCN)c21.O=C(O)C(F)(F)F [TCMDC-136191] | – | 1.03 | 7.42 | 0.78 | – | – | – | -19.55 | IC50 [2]: > 20 µM; Pf Asexual stages XC50 [4, 7]: 0.78 µM; IC50 [5, 9]: 6.46 µM; Pf FGAA classification [5]: SLOW |
| CCOc1ccc(-n2nc3c(Cl)nnc(-c4ccccc4)c3c2-c2ccccc2)cc1 [TCMDC-123899] | 0.94 | – | – | – | >100 | -0.60 | 0.23 | – | HepG2 cells TOX50 ([1]; HepG2 cells): >100 µM; IC50 [2]: > 20 µM; Pf Asexual stages XC50 [4, 7]: 0.31 µM; IC50 [5, 9]: > 20 µM; Pf FGAA classification [5]: SLOW |
| CCn1c(-c2nonc2N)nc2c(-c3cccc(NC(=O)Nc4cccc(Cl)c4)c3)ncc(OCCCN)c21.O=C(O)C(F)(F)F [TCMDC-136193] | – | 1.18 | 80.36 | 0.94 | – | – | – | -8.58 | – |
| O=C(Nc1cccc(-c2cccc(-c3nc4cc(C(F)(F)F)ccc4[nH]3)c2)c1)Nc1ccc(F)c(F)c1F [TCMDC-133229] | 1.4 | – | – | – | 3.43 | -42.33 | 0.12 | – | – |
| COc1c(CNCCCCCCNCc2c(OC)c(OC)c3ccccc3c2OC)c(OC)c2ccccc2c1OC.CS(=O)(=O)O [TCMDC-137837] | – | 3.69 | 4.42 | 0.96 | – | – | – | 18.67 | – |
| CCCC(N)C(=O)NC1CCN(c2c(F)c(N)c3c(=O)c(C(=O)O)cn4c3c2Oc2ccccc2-4)C1.Cl (centres unmarked) [TCMDC-125701] | 1.14 | – | – | – | 1.61 | 0.82 | 0.36 | – | – |
| CS(=O)(=O)O.FC(F)(F)COc1ccc(CNCCCCCCNCc2ccc(OCC(F)(F)F)c3ccccc23)c2ccccc12 [TCMDC-137853] | – | 0.63 | 2.46 | 0.4 | – | – | – | 94.02 | – |
| CCN(CC)CCCn1c(N)c(-c2nc3ccccc3[nH]2)c2nc(C#N)c(C#N)nc21 [TCMDC-123680] | 0.74 | – | – | – | 4.27 | 86.44 | 0.27 | – | – |
| CC(C)COc1ccc2ccccc2c1CNCCCCCCNCc1c(OCC(C)C)ccc2ccccc12.CS(=O)(=O)O [TCMDC-137972] | – | 0.81 | 2.19 | 0.69 | – | – | – | 92.13 | – |
| ON=C1CCc2cc(-c3cc(-c4ccc(OC5CCNCC5)cc4)oc3-c3ccncc3)ccc21 [TCMDC-141381] | – | – | – | – | – | 40.68 | 0.16 | – | HepG2 cells mean TOX50 ([1]; mean; HepG2 cells): 5.01 µM; IC50 ([5]; mean, P. falciparum female gametocyte activation assay, read-out: Gametocytes mean Pf FGAA IC50): 0.2 µM |
| COc1ccc(CNC2Cc3ccccc3C2)cc1-c1ccc(S(=O)(=O)NCCN2CCCC2)c(F)c1.O=C(O)C(F)(F)F [TCMDC-132266] | 1.95 | – | – | – | 6.03 | 7.12 | 0.72 | – | – |
| CCc1c(CCNCCCCCCNC(C)Cc2ccc3c(c2CC)OCO3)ccc(OC)c1OC.Cl (centres unmarked) [TCMDC-132052] | 0.48 | – | – | – | 2.46 | 35.74 | 0.87 | – | – |
| COc1ccc(CCNCCCCCCNCCc2ccc(Cl)c3ccccc23)cc1OC.Cl [TCMDC-131270] | 0.58 | – | – | – | 2.12 | 67.75 | 0.58 | – | – |
| CCc1c(CCNCCCCCCNCCc2ccc([N+](=O)[O-])cc2)ccc(OC)c1OC.Cl [TCMDC-132066] | 1.46 | – | – | – | 4.57 | 24.70 | 0.73 | – | – |
| O=C(O)C(F)(F)F.O=S(=O)(NCCN1CCCC1)c1ccc(-c2cccc(CNC3Cc4ccccc4C3)c2)cc1 [TCMDC-132215] | 2.54 | – | – | – | 6.03 | 9.62 | 0.62 | – | – |
| CC(C)(C)c1ccc(CN2CCC(CNC(=O)c3cc(-c4ccccc4Cl)cs3)C2)cc1.O=C(O)C(F)(F)F (centres unmarked) [TCMDC-134445] | 1.01 | – | – | – | 6.17 | -16.96 | 0.86 | – | – |

Continued, in another order:

| IC50 [5, 10] [µM] | IC50 [5, 11] [µM] | SMILES | HepG2 cells mean TOX50 ([1]; mean) [µM] | IC50 [4, 6] [µM] | HepG2 cells mean TOX50 ([1]; HepG2 cells; mean) [µM] | Gametocytes mean ATP inhibition at 2µM [3] [%] | IC50 [4, 8] [µM] | Gametocytes mean ATP inhibition at 2µM (%) [3] [%] | further results |
| --- | --- | --- | --- | --- | --- | --- | --- | --- | --- |
| – | 1.91 | Cl.Fc1cc(Cl)ccc1Nc1ccnc2cc(-c3ccc(CN4CCNCC4)o3)ccc12 [TCMDC-138394] | 12.05 | 0.28 | – | – | – | 1.31 | IC50 [2]: > 20 µM; Pf Asexual stages XC50 [4, 7]: 0.28 µM; IC50 [5, 9]: 10 µM; Pf FGAA classification [5]: SLOW |
| – | 1.04 | Cl.c1ccc2c(Nc3ccc(Cc4ccc(Nc5c6ccccc6nc6ccccc56)cc4)cc3)c3ccccc3nc2c1 [TCMDC-137354] | 3.85 | 0.16 | – | – | – | -29.34 | – |
| – | 0.15 | Clc1cccc(C23N=C(Nc4nc5ccccc5[nH]4)NC2(c2ccccc2)NC(Nc2nc4ccccc4[nH]2)=N3)c1 (centres unmarked) [TCMDC-139089] | 42.76 | 0.52 | – | – | – | 71.66 | – |
| – | 1.47 | COc1ccc2c(c1)CC(C)(C)NC2CCCCCCCCC1NC(C)(C)Cc2cc(OC)ccc21.O=C(O)C(=O)O (centres unmarked) [TCMDC-137935] | 5.62 | 1.3 | – | – | – | 1.39 | – |
| – | 1.56 | CN(C)CCNCc1ccc(-c2ccc3c(Nc4ccc(Oc5ccccc5)cc4)ccnc3c2)o1 [TCMDC-138399] | 5.69 | 0.28 | – | – | – | 14.30 | – |
| – | 1.91 | CN1CCN(CCCNCc2cccc(-c3ccc(CNCCc4ccccc4)cc3)c2)CC1 [TCMDC-140643] | 7.92 | 0.78 | – | – | – | 22.49 | – |
| – | 0.89 | COc1cc2nc(N3CCC(CNC(=O)c4ccc(-c5ccc(Cl)cc5)cc4)CC3)nc(N)c2cc1OC [TCMDC-138718] | 4.22 | 0.15 | – | – | – | 12.29 | – |
| – | 5.6 | COc1ccc2nc(-c3ccccc3)cc(NCCCNc3cc(-c4ccccc4)nc4ccc(OC)cc34)c2c1.Cl [TCMDC-137734] | 70.79 | 0.12 | – | – | – | 2.17 | – |
| 2.26 | – | COc1ccc(-c2cnc3[nH]cc(-c4ccncc4)c3c2)cc1OC [TCMDC-135853] | – | – | 11.79 | 76.41 | 0.13 | – | – |
| – | 2.25 | CCc1ccc(C2CCN(CCCCNC(=O)c3ccc(NC(=O)c4ccc(Cl)cc4)cc3)CC2)c(OCCO)c1 [TCMDC-138703] | 5.37 | 1.39 | – | – | – | -4.56 | – |
| – | 1.3 | Br.C/C=C/C=C/C1=NCCc2cc(OCCC)ccc21 [TCMDC-137442] | 18.29 | 0.91 | – | – | – | 30.75 | – |
| – | 1.58 | CN(CCCCN)Cc1ccc(-c2ccc(Cl)cc2)cc1 [TCMDC-140123] | 3.55 | 0.88 | – | – | – | 17.75 | – |
| – | 0.14 | c1ccc(C23N=C(Nc4nc5ccccc5[nH]4)NC2(c2ccccc2)NC(Nc2nc4ccccc4[nH]2)=N3)cc1 (centres unmarked) [TCMDC-139082] | 58.90 | 0.28 | – | – | – | 65.26 | – |
